The record followed here is BindingDB's records for doi:10.7270/Q2251GJ9 (The Scripps Research Institute Molecular Screening Center, 2007).

Counter-ions that a name gives are not always drawn.

In one test the target is Sphingosine 1-phosphate receptor 1 (Homo sapiens, UniProt P21453). Kind of test: S1P1 receptor agonists, dose response, cell-based, agonist mode, 60K MLSMR set (AID 468).
Chain of Sphingosine 1-phosphate receptor 1 (P21453 whole entry): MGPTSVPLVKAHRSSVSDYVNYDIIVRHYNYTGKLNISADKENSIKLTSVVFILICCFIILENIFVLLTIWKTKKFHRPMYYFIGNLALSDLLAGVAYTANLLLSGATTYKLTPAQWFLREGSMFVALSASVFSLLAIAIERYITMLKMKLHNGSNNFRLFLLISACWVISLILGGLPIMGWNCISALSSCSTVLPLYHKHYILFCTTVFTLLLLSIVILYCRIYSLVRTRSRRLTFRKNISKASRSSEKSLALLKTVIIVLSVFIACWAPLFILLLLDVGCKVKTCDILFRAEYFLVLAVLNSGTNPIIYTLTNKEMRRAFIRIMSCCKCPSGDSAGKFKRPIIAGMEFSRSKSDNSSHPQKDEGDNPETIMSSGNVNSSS
Conditions: not given
With `COc1cc(CSc2nnnn2-c2ccc(C)cc2)cc(OC)c1OC` [1-(4-methylphenyl)-5-[(3,4,5-trimethoxybenzyl)thio]-1H-tetrazole], a half-maximal effect (EC50) was put at 2.26 µM.

For `CCOC(=O)C1CCN(c2ncnc3c2oc2ccc(Cl)cc23)CC1` [1-(8-chloro-4-benzofuro[3,2-d]pyrimidinyl)-4-piperidinecarboxylic acid ethyl ester], the EC50 was more than 95 µM.

`OC1(c2cccc(C(F)(F)F)c2)CCN(c2ncnc3c2[nH]c2ccc(F)cc23)CC1` [1-(8-fluoranyl-5H-pyrimido[5,4-b]indol-4-yl)-4-[3-(trifluoromethyl)phenyl]piperidin-4-ol] displayed an EC50 of 3.91 µM.

For `O=C(Nc1cccc(C(F)(F)F)c1)C1CCCN1S(=O)(=O)c1cccc2cccnc12` (centres undefined) [1-(8-quinolinylsulfonyl)-N-[3-(trifluoromethyl)phenyl]-2-pyrrolidinecarboxamide], a half-maximal response (EC50) required 4.74 µM.

Consider `O=C(Nc1ccc(C(F)(F)F)cc1)C1CCCN1S(=O)(=O)c1cccc2cccnc12` (centres undefined) [1-(8-quinolinylsulfonyl)-N-[4-(trifluoromethyl)phenyl]-2-pyrrolidinecarboxamide], for which it took 9.86 µM to reach a half-maximal effect (EC50).

Compound `CCn1nc(-c2ccccc2)nc2c(=O)n(C)c(=O)nc1-2` [1-Ethyl-6-methyl-3-phenyl-1H-pyrimido[5,4-e][1,2,4]triazine-5,7-dione] gave an EC50 of 3.55 µM.

For the compound `Cc1cc(C(=O)CSc2nnc(-c3ccco3)o2)c(C)n1-c1ccc2c(c1)OCCO2` [1-[1-(2,3-dihydro-1,4-benzodioxin-6-yl)-2,5-dimethyl-3-pyrrolyl]-2-[[5-(2-furanyl)-1,3,4-oxadiazol-2-yl]thio]ethanone], a half-maximal effect (EC50) was put at 7.58 µM.

`Cc1cc(C(=O)CSc2nnnn2C)c(C)n1-c1cccc(F)c1` [1-[1-(3-fluorophenyl)-2,5-dimethyl-3-pyrrolyl]-2-[(1-methyl-5-tetrazolyl)thio]ethanone]: the EC50 came out at 2.23 µM.

In turn, `COc1ccc(-n2c(C)cc(C(=O)CSc3nnc(-c4cccs4)o3)c2C)cc1` [1-[1-(4-methoxyphenyl)-2,5-dimethyl-3-pyrrolyl]-2-[(5-thiophen-2-yl-1,3,4-oxadiazol-2-yl)thio]ethanone] registered an EC50 of 2.03 µM.

`Cc1csc(SCC(=O)c2cc(C)n(Cc3cccs3)c2C)n1` [1-[2,5-dimethyl-1-(2-thenyl)pyrrol-3-yl]-2-[(4-methylthiazol-2-yl)thio]ethanone] had a half-maximal effective concentration (EC50) of 6.76 µM. Against the preceding compound, the EC50 is about 3.3-fold higher.

`Cc1ccc(-n2c(C)cc(C(=O)CSc3nnnn3C)c2C)cc1` [1-[2,5-dimethyl-1-(4-methylphenyl)-3-pyrrolyl]-2-[(1-methyl-5-tetrazolyl)thio]ethanone] came in with a concentration for a half-maximal effect (EC50) of 4.77 µM.

As for `Cc1cc(C)n2nc(SCC(=O)c3cc(C)n(-c4cc(C)on4)c3C)nc2n1` [1-[2,5-dimethyl-1-(5-methyl-1,2-oxazol-3-yl)pyrrol-3-yl]-2-[(5,7-dimethyl-[1,2,4]triazolo[1,5-a]pyrimidin-2-yl)sulfanyl]ethanone], the midpoint of the response, the EC50, lay at 4.18 µM.

Consider `CC(Oc1ccccc1Br)C(=O)N1CCc2ccccc21` (centres undefined) [1-[2-(2-bromophenoxy)propanoyl]indoline], for which the EC50 is 6.81 µM. This EC50 is about 1.6-fold higher than that of the compound before.

As for `Cc1ccc(OCCn2cc(C(=N)NO)c3ccccc32)cc1C` [1-[2-(3,4-dimethylphenoxy)ethyl]-N'-hydroxy-1H-indole-3-carboximidamide], the 50% effective concentration (EC50) worked out at 9.82 µM.

Compound `CCOc1ccc(-c2nc(CSCC(=O)N3CCN(c4cccc(OC)c4)CC3)c(C)o2)cc1` [1-[4-(3-methoxyphenyl)piperazino]-2-[(5-methyl-2-p-phenetyl-oxazol-4-yl)methylthio]ethanone] gave an EC50 of 9.02 µM.

For the compound `Cc1nnc(SCC(=O)N2CCC(c3noc4ccc(F)cc34)CC2)s1` [1-[4-(5-fluoranyl-1,2-benzoxazol-3-yl)piperidin-1-yl]-2-[(5-methyl-1,3,4-thiadiazol-2-yl)sulfanyl]ethanone], the EC50 was 4.27 µM. Against the preceding compound, the EC50 is about 2.1-fold lower.

Compound `Fc1ccccc1COc1ccc(C=Nn2cnnc2)cc1` [1-[4-[(2-fluorophenyl)methoxy]phenyl]-N-(1,2,4-triazol-4-yl)methanimine] gave a 50% effective concentration (EC50) of 4.62 µM. The EC50 values of the last two compounds are within 1.5-fold of each other.

In turn, `Fc1ccc(COc2ccc(C=Nn3cnnc3)cc2)cc1` [1-[4-[(4-fluorophenyl)methoxy]phenyl]-N-(1,2,4-triazol-4-yl)methanimine] yielded a concentration for a half-maximal effect (EC50) of 8.28 µM. This EC50 lies about 1.8-fold higher than the previous one.

With `COc1ccc(C(c2c(O)ccc3ccccc23)N2CCOCC2)c(OC)c1` (centres undefined) [1-[(2,4-dimethoxyphenyl)-(4-morpholinyl)methyl]-2-naphthalenol], the concentration giving a half-maximal response (EC50) was determined as 4.94 µM.

On to `Cc1ccc(-c2csc3ncnc(Sc4nnc(CN5CCCCCC5=O)o4)c23)cc1` [1-[[5-[5-(4-methylphenyl)thieno[2,3-d]pyrimidin-4-yl]sulfanyl-1,3,4-oxadiazol-2-yl]methyl]azepan-2-one], for which the EC50 is 2.35 µM.

In the case of `Nc1nnnn1N=C/C(Br)=C/c1ccccc1` [1-[[(Z)-2-bromanyl-3-phenyl-prop-2-enylidene]amino]-1,2,3,4-tetrazol-5-amine], the EC50 was more than 10 µM.

In the case of `COc1cc2c(cc1OC)C(C)N(C(=O)c1cc3ccccc3o1)CC2` (centres undefined) [1-benzofuran-2-yl-(6,7-dimethoxy-1-methyl-3,4-dihydro-1H-isoquinolin-2-yl)methanone], the EC50 was more than 95 µM.

In the case of `O=C(NCc1ccc2c(c1)OCO2)C1CC(=O)N(C2CCCCCCC2)C1` (centres undefined) [1-cyclooctyl-5-keto-N-piperonyl-pyrrolidine-3-carboxamide], the EC50 was more than 95 µM.

In turn, `Cn1c(-c2c(N)n(C3CCCC3)c3nc4ccccc4nc23)nc2ccccc21` [1-cyclopentyl-3-(1-methyl-2-benzimidazolyl)-2-pyrrolo[3,2-b]quinoxalinamine] gave an EC50 of 1.15 µM.

`C=CS(=O)(=O)c1ccc(Oc2ccc(S(=O)(=O)C=C)cc2)cc1` [1-ethenylsulfonyl-4-(4-ethenylsulfonylphenoxy)benzene] came in with an EC50 of 2.74 µM. Compared with the last compound, the EC50 is about 2.4-fold higher.

For `CCn1nc(-c2cccs2)nc2c(=O)n(C)c(=O)nc1-2` [1-ethyl-6-methyl-3-thiophen-2-yl-pyrimido[5,4-e][1,2,4]triazine-5,7-dione], the EC50 was more than 10 µM.

In the case of `O=C(c1ccccc1)C(CCC(CN1CCOCC1)C(=O)c1ccccc1)CN1CCOCC1` (centres undefined) [2,5-bis(4-morpholinylmethyl)-1,6-diphenylhexane-1,6-dione;hydrochloride], the response was half-maximal at 4.8 µM (EC50).

The compound `CCCCc1ccc(C2C(C#N)C(=N)SC(=N)C2C#N)s1` (centres undefined) [2,6-bis(azanyl)-4-(5-butylthiophen-2-yl)-4H-thiopyran-3,5-dicarbonitrile] returned an EC50 of 13.4 µM.

For `COCCn1c(C)cc(C(=O)CSc2nc3ccccc3o2)c1C` [2-(1,3-benzoxazol-2-ylsulfanyl)-1-[1-(2-methoxyethyl)-2,5-dimethyl-pyrrol-3-yl]ethanone], the EC50 is more than 95 µM.

The test is the same for the next values; noted with them: inactive by the depositor's call.
Turning to `O=C(C1CCC1)N1CCc2cc(S(=O)(=O)Nc3ccc4c(c3)OCCO4)ccc21` [1-(cyclobutanecarbonyl)-N-(2,3-dihydro-1,4-benzodioxin-6-yl)-2,3-dihydroindole-5-sulfonamide], the EC50 was found to be 38.9 µM.

Consider `O=C(C1CC1)N1CCc2cc(S(=O)(=O)NCC3COc4ccccc4O3)ccc21` (centres undefined) [1-(cyclopropanecarbonyl)-N-(2,3-dihydro-1,4-benzodioxin-3-ylmethyl)-2,3-dihydroindole-5-sulfonamide], for which a half-maximal effect (EC50) was put at 14 µM.

`COc1ccc(-n2c(C)c(C(C)=O)c3cc(O)ccc32)cc1` [1-[1-(4-methoxyphenyl)-2-methyl-5-oxidanyl-indol-3-yl]ethanone]: the response was half-maximal at 15.6 µM (EC50).

For the compound `CCN(CC)c1ccc(-n2c(C)c(C(C)=O)c(C(C)=O)c2C)cc1` [1-[1-[4-(diethylamino)phenyl]-4-ethanoyl-2,5-dimethyl-pyrrol-3-yl]ethanone], it took 11.4 µM to reach a half-maximal effect (EC50). The EC50 values of the last two compounds are within 1.5-fold of each other.

Turning to `O=C(NCc1ccco1)C1CCN(C(=O)c2cc3sccc3n2Cc2ccc(Cl)cc2)CC1` [1-[4-(4-chlorobenzyl)thieno[3,2-b]pyrrole-5-carbonyl]-N-(2-furfuryl)isonipecotamide], the EC50 stood at 10.6 µM.

As for `CC(C)(CC(=O)N1CCN(c2ccc(Cl)cc2)CC1)CC1=NS(=O)(=O)c2ccccc2N1` [1-[4-(4-chlorophenyl)-1-piperazinyl]-4-(1,1-dioxo-4H-1,2,4-benzothiadiazin-3-yl)-3,3-dimethyl-1-butanone], the EC50 worked out at 10.5 µM. This EC50 and that of the compound before are within 1.5-fold of each other.

Turning to `CCCC(=O)c1ccc(N2CCN(C(=O)c3ccccc3Br)CC2)c(F)c1` [1-[4-[4-(2-bromobenzoyl)piperazin-1-yl]-3-fluorophenyl]butan-1-one], the EC50 was 11.9 µM. The EC50 values of the last two compounds are within 1.5-fold of each other.

`CC(=O)c1ccc(N2CCN(c3ccc(C(F)(F)F)cn3)CC2)cc1` [1-[4-[4-[5-(trifluoromethyl)-2-pyridinyl]-1-piperazinyl]phenyl]ethanone] showed a 50% effective concentration (EC50) of 29.4 µM. This EC50 is about 2.5-fold higher than that of the compound before.

As for `CC(=O)N1C=CN(C(C)=O)C(c2cn(C)c3ccccc23)C1c1cn(C)c2ccccc12` (centres undefined) [1-[4-acetyl-2,3-bis(1-methyl-3-indolyl)-2,3-dihydropyrazin-1-yl]ethanone], the EC50 is 26.2 µM.

In turn, `CCc1ccc(-c2nc(CSCC(=O)N3CCN(c4ccccn4)CC3)c(C)o2)cc1` [1-[({[2-(4-ethylphenyl)-5-methyl-1,3-oxazol-4-yl]methyl}thio)acetyl]-4-pyridin-2-ylpiperazine] displayed an EC50 of 11.8 µM.

Compound `Cc1cccc(-c2nc(CSCC(=O)N3CCN(c4ccccn4)CC3)c(C)o2)c1` [1-[({[5-methyl-2-(3-methylphenyl)-1,3-oxazol-4-yl]methyl}thio)acetyl]-4-pyridin-2-ylpiperazine] returned an EC50 of 13.6 µM.

In turn, `CC(=O)N1CCCc2cc(S(=O)(=O)NCCC3=CCCCC3)ccc21` [1-acetyl-N-(2-cyclohex-1-en-1-ylethyl)-1,2,3,4-tetrahydroquinoline-6-sulfonamide] gave an EC50 of 14.5 µM.

As to `CCCCCn1c(=O)c(C(=O)NCc2ccncc2)c(O)c2ccccc21` [1-amyl-2-hydroxy-4-keto-N-(4-pyridylmethyl)quinoline-3-carboxamide], a half-maximal response (EC50) required 19.8 µM.

Consider `Cc1nn(Cc2ccccc2)c(C)c1C(=O)OCC(=O)c1cc(C)n(C2CC2)c1C` [1-benzyl-3,5-dimethyl-pyrazole-4-carboxylic acid [2-(1-cyclopropyl-2,5-dimethyl-pyrrol-3-yl)-2-keto-ethyl] ester], for which the EC50 amounted to 13.9 µM.

In turn, `Cc1nc(C)c(C(=O)Nc2ccc(Oc3ccccc3)cc2)o1` [2,4-dimethyl-N-(4-phenoxyphenyl)-1,3-oxazole-5-carboxamide] gave an EC50 of 11 µM.

As a reminder, the EC50 is the concentration giving half of the maximal effect. Low readings indicate higher potency in that assay, high ones lower potency in that assay.
